The values below come from ChEMBL document CHEMBL1201862, “PubChem BioAssay data set” (2004).

The structures appear in SMILES notation.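 Five compound concentrations were applied to cells in 96-well plates for 48 hours; endpoints were derived by simple linear interpolation of the resulting dose-response curve. GI50: concentration for 50% inhibition of growth.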 Activity calls are given as the source filed them. No stated cut-off is given here; in the data, active = GI50 up to about 1.1 µM and inactive = higher.

Some test systems named below: PC-3; ACHN; MDA-MB-435; SK-MEL-5; K562; HCT-116; OVCAR-4; HCT-15; NCI-H522; SNB-19; MCF7; NCI-H226; NCI/ADR-RES; SF-295; CCRF-CEM; OVCAR-5; SF-268; IGROV-1; M14; UO-31.
Common to all, as to test: NCI-60 cell line screen, 48 h

As for `CC(=O)NNC1=NN(C(C)=O)C2(S1)C(=O)Nc1ccc(C)cc12` (stereo not given), the GI50 with PC-3 is 67.5 µM (inactive); with ACHN, 34.2 µM (inactive); in the test on MDA-MB-435 it was > 100 µM (inactive); in the test with SK-MEL-5, 68.5 µM (inactive); in the test with K562 it was 48.3 µM (inactive); in the test with HCT-116, > 100 µM (inactive). The GI50 in the test with OVCAR-4 is 88.1 µM (inactive); with HCT-15, 50 µM; with NCI-H522, 42 µM (inactive); in the test with SNB-19, 52.5 µM (inactive); in the test with MCF7, 58.7 µM (inactive); in the test on NCI-H226 it was > 100 µM (inactive). Moreover, the GI50 in the test with NCI/ADR-RES was > 100 µM (inactive); in the test with SF-295, 97.9 µM (inactive); in the test with CCRF-CEM, 48.4 µM (inactive); with OVCAR-5 it was > 100 µM (inactive); with SF-268, > 100 µM (inactive); in the test with IGROV-1, 66.5 µM (inactive). Also, the GI50 with M14 was > 100 µM (inactive); in the test with UO-31, 32.4 µM (inactive).
`CSc1nc2c(c(N(C)C)n1)C(O)n1c(nc3ccccc31)S2` (stereo not given): the GI50 is > 100 µM (inactive) in the test on PC-3; > 83.9 µM (inactive) in the test with ACHN; > 100 µM (inactive) with MDA-MB-435; 56.2 µM (inactive) with SK-MEL-5; > 100 µM (inactive) with K562; 23 µM (inactive) with HCT-116. The GI50 was 4.95 µM (inactive) in the test with OVCAR-4; above 100 µM in the test on HCT-15; 12 µM (inactive) in the test on NCI-H522; 25.4 µM (inactive) in the test with SNB-19; 47 µM (inactive) with MCF7; > 100 µM (inactive) with NCI-H226. Moreover, the GI50 in the test with NCI/ADR-RES was 37.8 µM (inactive); in the test with SF-295, 38.1 µM (inactive); with CCRF-CEM, > 100 µM (inactive); in the test with OVCAR-5 it was > 100 µM (inactive); in the test on SF-268, 32.7 µM (inactive); in the test on IGROV-1, 30.2 µM (inactive). For the same compound, the GI50 in the test with M14 was > 65.3 µM (inactive); in the test on UO-31 it was > 50.2 µM (inactive).
As for `O=[N+]([O-])c1cccc(-c2ncc3c(n2)-c2ccccc2C3)c1`, the GI50 with PC-3, in the test on ACHN, in the test with MDA-MB-435, in the test with SK-MEL-5, in the test on K562 and in the test with HCT-116 was > 100 µM (inactive) in each case. The GI50 with OVCAR-4 was > 100 µM (inactive); in the test on HCT-15, above 100 µM; with NCI-H522, 24.7 µM (inactive); in the test on SNB-19 it was 30.3 µM (inactive); with MCF7 it was > 100 µM (inactive); in the test with NCI-H226 it was > 100 µM (inactive). Further, the GI50 is > 100 µM (inactive) in the test with NCI/ADR-RES; 54.3 µM (inactive) in the test on SF-295; > 100 µM (inactive) in the test on CCRF-CEM; > 100 µM (inactive) in the test on OVCAR-5; 51.6 µM (inactive) in the test with SF-268; 53.2 µM (inactive) with IGROV-1. Further, the GI50 in the test with M14 and in the test on UO-31 was > 100 µM (inactive) throughout.
With `COC(=O)C1(C(=O)OC)CC(=O)c2c(OC(=O)c3cccc(OC)c3C#N)ccc(OC(=O)c3cccc(OC)c3C#N)c2C1`, the GI50 in the test with PC-3, with ACHN, in the test with MDA-MB-435, with SK-MEL-5, in the test on K562 and with HCT-116 was > 100 µM (inactive) in each case. For the same compound, the GI50 in the test with OVCAR-4 was > 100 µM (inactive); with HCT-15 it was above 100 µM; in the test with NCI-H522 it was > 100 µM (inactive); in the test with SNB-19, > 100 µM (inactive); in the test with MCF7 it was > 100 µM (inactive); with NCI-H226, > 100 µM (inactive). The GI50 with NCI/ADR-RES, in the test on SF-295, in the test on CCRF-CEM, with OVCAR-5, with SF-268 and in the test with IGROV-1 was > 100 µM (inactive) each time. Besides, the GI50 with M14 was > 100 µM (inactive); in the test with UO-31, 59.2 µM (inactive).
As to `Cc1ccc(C)n1-n1c(-c2ccccc2)n[nH]c1=O`, the GI50 with PC-3 is > 100 µM (inactive); in the test with ACHN it was > 100 µM (inactive); in the test on MDA-MB-435, 21.2 µM (inactive); in the test with SK-MEL-5, > 100 µM (inactive); in the test on K562 it was 53.7 µM (inactive); in the test on HCT-116 it was > 100 µM (inactive). Moreover, the GI50 in the test on OVCAR-4 was > 100 µM (inactive); in the test with HCT-15, above 100 µM; with NCI-H522, > 100 µM (inactive); with SNB-19 it was > 100 µM (inactive); in the test with MCF7, > 100 µM (inactive); in the test on NCI-H226, > 100 µM (inactive). Besides, the GI50 in the test with NCI/ADR-RES, with SF-295, with CCRF-CEM, in the test on OVCAR-5, with SF-268 and in the test on IGROV-1 was > 100 µM (inactive) throughout. Besides, the GI50 in the test on M14 and in the test with UO-31 was > 100 µM (inactive) each time.
With `Nc1nc(N)c(N=O)c(OCC2CCCCC2)n1`, the GI50 with PC-3 is 6.41 µM (inactive); with ACHN, 1.06 µM (active); with MDA-MB-435, 14.3 µM (inactive); in the test on SK-MEL-5 it was 9.73 µM (inactive); in the test with K562, 21.9 µM (inactive); with HCT-116, 9.12 µM (inactive). Also, the GI50 in the test with OVCAR-4 is 10 µM (inactive); with HCT-15, 5.5 µM; with NCI-H522 it was 5.96 µM (inactive); in the test on SNB-19, 26.8 µM (inactive); in the test with MCF7, 4.3 µM (inactive); with NCI-H226, 9.4 µM (inactive). The GI50 in the test on NCI/ADR-RES is 18.9 µM (inactive); with SF-295, 13 µM (inactive); with CCRF-CEM, 5.36 µM (inactive); in the test with OVCAR-5, 9.71 µM (inactive); with SF-268, 8.49 µM (inactive); with IGROV-1 it was 3.23 µM (inactive). In addition, the GI50 is 8.47 µM (inactive) in the test on M14 and 5.16 µM (inactive) in the test on UO-31.
As to `CC1C(OS(=O)(=O)c2ccc3nc(S)sc3c2)CC2C3(C)CCC2(C(C)C(=O)O)C(O)C13` (stereo not given), the GI50 in the test on PC-3 was 27.4 µM (inactive); with ACHN it was 15.9 µM (inactive); with MDA-MB-435 it was 17.2 µM (inactive); in the test on SK-MEL-5 it was 14.8 µM (inactive); in the test with K562 it was 26.2 µM (inactive); in the test with HCT-116 it was 13.6 µM (inactive). Further, the GI50 with OVCAR-4 was 18.6 µM (inactive); with HCT-15 it was 12.5 µM; in the test with NCI-H522 it was 3.29 µM (inactive); with SNB-19 it was 54.1 µM (inactive); in the test with MCF7, 27.6 µM (inactive); with NCI-H226 it was 19.8 µM (inactive). Also, the GI50 in the test on NCI/ADR-RES was 33 µM (inactive); in the test on SF-295, 28 µM (inactive); with CCRF-CEM, 3.85 µM (inactive); in the test with OVCAR-5, 25.5 µM (inactive); in the test with SF-268 it was 27.4 µM (inactive); in the test with IGROV-1 it was 11.4 µM (inactive). Besides, the GI50 is 32.4 µM (inactive) in the test with M14 and 17.4 µM (inactive) with UO-31.
